Key:
[1] = Solubility assessment (turbidity absorbance at 325 nm); details: phosphate buffer, pH 7.5
How it was run: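 Peptide stock 2 mg/ml (A280-quantified) in water at pH 2.5, diluted 1:1 into 100 mM acetate pH 4.0 or 100 mM phosphate pH 7.5. Absorbance at 280 and 325 nm read at ambient temperature, single samples (n=1).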

[2] = Assessment of physical stability (Thioflavin T fibril formation lag-time); format: physicochemical; details: 1 mg/ml, 50 mM phosphate pH 7.5, 40° C., 96 hours
Procedure: A solution containing 1 mg/ml of peptide, 40 μM ThT and 50 mM phosphate buffer, pH 7.5, was loaded in a 96-well black fluorescence plate (clear bottom) in triplicate. Data were collected at fixed intervals of 10 min, each preceded by 300 s of automixing (agitation), over a period of 96 hours at 40° C. The entire experiment was repeated, but without agitation. Physical stability, expressed as lag-time of fibril formation (in hours), was defined as the intersection between two linear regressions representing the initial stable phase and the growth phase.

[3] = Chemical stability assessment (RP-HPLC normalized purity); format: physicochemical
Procedure: Samples were placed in glass vials and incubated at 40° C. The samples were analysed by reverse-phase HPLC on a C18 column with gradient elution using an acetonitrile/trifluoroacetic acid/water eluent system. The area-percentage (area-%) of the main peak after incubation time T=t (relative to time T=0) was detected by UV spectrometry at 220 nm. The purity was first determined as follows: Purity(area-%)=(area of main peak/total area of all peaks)×100. […] Normalized purity values in Table 2 were determined after 14 days of incubation.

CC(C)C[C@H](NC(=O)[C@H](Cc1c[nH]c2ccccc12)NC(=O)[C@H](CCCCN)NC(=O)[C@@H](NC(=O)[C@H](Cc1ccccc1)NC(=O)[C@H](CCC(=O)O)NC(=O)[C@H](CCC(=O)O)NC(=O)[C@H](C)NC(=O)[C@H](CCCNC(=N)N)NC(=O)[C@H](C)NC(=O)C(C)(C)NC(=O)[C@H](CC(=O)O)NC(=O)[C@H](CC(C)C)NC(=O)[C@H](Cc1ccc(O)cc1)NC(=O)[C@H](CCCCN)NC(=O)[C@H](CO)NC(=O)[C@H](Cc1ccc(O)cc1)NC(=O)[C@H](CC(=O)O)NC(=O)[C@H](CO)NC(=O)[C@@H](NC(=O)[C@H](Cc1ccccc1)NC(=O)[C@@H](NC(=O)CNC(=O)[C@H](CCC(N)=O)NC(=O)[C@H](CO)NC(=O)[C@@H](N)Cc1c[nH]cn1)[C@@H](C)O)[C@@H](C)O)C(C)C)C(=O)N[C@@H](CCC(=O)O)C(=O)N[C@@H](CO)C(=O)N[C@H](C(=O)O)[C@@H](C)O [Compound 21]
solubility [1]: ≥ 1000 µg/mL | Physical Stability at pH 7.5 (agitated) ([2]; with agitation): FND | Physical Stability at pH 7.5 (non-agitated) ([2]; without agitation): FND | Normalized purity pH 4.0 after 14 days ([3]; 1 mg/ml in 50 mM acetate buffer pH 4.0, 40° C.): 89.8% | Normalized purity pH 7.5 after 14 days ([3]; 1 mg/ml in 50 mM phosphate buffer pH 7.5, 40° C.): 93.5%

— patent US11795204B2 (Zealand Pharma A/S, priority 2012, dated 2023)
